This note sets out measurements from US20130303500A1, “COMPOUNDS AND METHODS FOR TREATING NEOPLASIA” (Medexis S.A., priority 2010, published 2013).

One assay deals with MCF7 (Breast) cells. Kind of assay: Sulforhodamine B (SRB) assay, MCF7. It counts as cell-based, human. The protocol:
(§1) Sulforhodamine B (SRB) assays were performed according to standard National Cancer Institute Guidelines. Briefly, human tumor cells from different cancer panels were seeded into 96 well plates in […] (plating densities ranging from 5-40,000 cells/well depending on the doubling time of individual cell lines) in serum-containing media for twenty-four hours prior to the addition of the compounds to be assayed. After 24 hours, one plate of each cell line was fixed in situ with trichloroacetic acid (TCA). The fixed slides were used to determine the cell population for each cell line at the time of drug addition (Tz). Each compound to be tested was solubilized in dimethyl sulfoxide (DMSO) and the desired concentration was then added to the medium and diluted serially 1:10 to provide a total of five or ten drug concentrations plus control (in a final volume of 200 μL). The starting dose before any dilution was 100 uM for all compounds.
(§2) Following drug addition, each culture was incubated for forty-eight hours. The assay was terminated with the addition of cold TCA. The supernatant was discarded, and the plates were washed with tap water and air dried. SRB solution was then added to each well. After staining, the bound stain was solubilized and the absorbance was read on an automated plate reader at a wavelength of 515 nm.
(§3) Using the absorbance measurements [time zero, (Tz), control growth, (C), and test growth in the presence of drug at the ten concentration levels (Ti)], the percentage growth was calculated at each of the drug concentrations levels. Percentage growth inhibition was calculated as:
(§4) [(Ti−Tz)/(C−Tz)]×100 for concentrations for which Ti>/=Tz
(§5) [(Ti−Tz)/Tz]×100 for concentrations for which Ti<Tz.
(§6) Three dose response parameters were calculated for each experimental agent. Growth inhibition of 50% (GI50) was calculated from [(Ti−Tz)/(C−Tz)]×100=50, which was the drug concentration resulting in a 50% reduction in the net protein increase (as measured by SRB staining) in control cells during the drug. The drug concentration resulting in total growth inhibition (TGI) was calculated from Ti=Tz. The LC50 (concentration of drug resulting in a 50% reduction in the measured protein at the end of the drug treatment as compared to that at the beginning) indicating a net loss of cells following treatment was calculated from [(Ti−Tz)/Tz]×100=−50.
(§7) Values were calculated for each of these three parameters when the level of activity was reached; however, if the effect was not reached or was exceeded, the value for that parameter was expressed as greater or less than the maximum or minimum concentration tested.
On the technique in general: The SRB assay estimates cell density from bound dye.

The subject of assay [1] is 7 different cell lines (lung, ovarian, prostate, CNS, breast, colon). Kind of assay: SRB assays across 7 cell lines. Format: cell-based, human. The method, then:
as §1, §2, §3, §4, §5, §6, §7
SRB provides a colorimetric measure of a compound's anti-cancer activity. SRB assays were performed with compounds of the invention in 7 different cell lines, which represent six different tumor panels (lung, ovarian, prostate, CNS, breast, colon).

The test system of assay [2] is NCI-ADR-RES (Ovarian) cells. Kind of assay: Sulforhodamine B (SRB) assay, NCI-ADR-RES (multidrug resistant). It counts as cell-based, human. As to conditions: 48 h. The method, then:
as §1, §2, §3, §4, §5, §6, §7

The test system of assay [3] is membrane androgen receptor. In words: Membrane androgen receptor competition assay with testosterone-HSA-FITC in DU145 cells. It counts as binding. On the set-up: membrane fluorescence (binding of TAC-FITC to the membrane androgen receptor): dose or concentration left out as unconfirmed. The protocol: The detection of membrane androgen receptors using fluorescent testosterone-serum albumin conjugates was performed as described by Kampa, M et al., 2002, Faseb J 16:1429-1431, with minor modifications. The assay was used to measure the ability of a given compound to preclude binding of a fluorescent mAR ligand (testosterone-HSA-FITC conjugates) to its receptor in DU145 cells; this compound-induced effect is indicative of direct mAR binding (see Kampa et al and PCT/US2007/007913). […] Coverslips were mounted on slides by using the Slow Fade/Antifade Reagent (Molecular Probes) and studied under a LEICA DMLB microscope, equipped with the appropriate fluorescence filters and a Leica DC 300F camera. Specimens were analyzed using the Leica FW4000 computer program.
Membrane androgen receptor competition assays were performed to determine the capacity of a given compound to preclude binding of fluorescent testosterone-HSA conjugates (TAC) to the membrane androgen receptor. […] Specimens were prepared and analyzed as described above. Compounds binding to the membrane androgen receptor preclude binding of fluorescent testosterone-HSA conjugates to their target and abolish membrane-specific fluorescence.

The test system of the next assay is HCT116 (Colon) cells. Kind of assay: Sulforhodamine B (SRB) assay, HCT116. It counts as cell-based, human. The protocol: as §1, §2, §3, §4, §5, §6, §7
Assay [4] deals with Na+/K+-ATPase (Adenosine 5′-Triphosphatase isolated from porcine cerebral cortex). Kind of assay: Na+/K+-ATPase inhibitory activity, colorimetric Adenosine 5′-Triphosphatase Enzymatic Assay (Sigma). Format: biochemical. As to conditions: enzyme from porcine cerebral cortex, 0.5 units/ml. The method, then: The compound inhibitory effect on ATPase activity was assessed in vitro using the colorimetric Adenosine 5′-Triphosphatase Enzymatic Assay of Sigma (St. Louis, Mo.) according to the manufacturer's instructions. This assay utilizes Adenosine 5′-Triphosphatase isolated from porcine cerebral cortex. Each reaction was performed in a final volume of […] using 0.5 units/ml enzyme in the presence of the different inhibitors. […] IC50 values were determined using the Origin® program software (OriginLab, Northampton, Mass.).

In a further assay the test system is PC3 (Prostate) cells. Kind of assay: Sulforhodamine B (SRB) assay, PC3. Format: cell-based. As to conditions: Homo sapiens, Prostate cell, 48 h. The protocol:
as §1, §2, §3, §4, §5, §6, §7

A further assay concerns H460 (Lung) cells. In words: Sulforhodamine B (SRB) assay, H460. It counts as cell-based, human. The protocol:
as §1, §2, §3, §4, §5, §6, §7

pIC50: −log10 of the molar value.

By GI50 is commonly meant the concentration at which growth is held to half of that of the control. Broadly, the TGI is the concentration at which net growth stops. A word on the pIC50: it is the IC50 on a negative log10 scale, so that one unit is a factor of ten. As to `C[C@]12CCC(=NOC3CCNC3)CC1CCC1C2CC[C@]2(C)C(=O)C(F)CC12` (stereo partly drawn) [Compound 2, (5S,10S,13S,16R)-16a-fluoro-10,13-dimethyl-3-((S)-pyrrolidin-3-yloxyimino)-tetradecahydro-2H-cyclopenta[a]phenanthren-17(14H)-one], the CC50 in the assay on MCF7 (Breast) cells (Homo sapiens, MCF7, 48 h, read-out: LC50) was 9.78 µM; in assay [1] (Homo sapiens, read-out: LC50 values), < 1 µM; in assay [2] (Homo sapiens, NCI/ADR-RES, read-out: LC50) it was 0.598 µM; in the assay on HCT116 (Colon) cells (Homo sapiens, HCT-116, 48 h, read-out: LC50) it was 0.998 µM; in the assay on PC3 (Prostate) cells (read-out: LC50) it was 0.962 µM; in the assay on H460 (Lung) cells (Homo sapiens, NCI-H460, 48 h, read-out: LC50), 0.054 µM. In addition, the concentration for 50% growth inhibition (GI50) with MCF7 (Breast) cells (Homo sapiens, MCF7 Breast, SRB, 48 h) is 0.021 µM; in assay [1] (Homo sapiens, SRB, average over cell lines) it was < 1 µM; in assay [2] (Homo sapiens, NCI-ADR-RES Ovarian, SRB), 0.029 µM; in the assay on HCT116 (Colon) cells (Homo sapiens, HCT-116, HCT116 Colon, SRB, 48 h) it was 0.008 µM; with PC3 (Prostate) cells (PC3 Prostate, SRB), 0.046 µM; with H460 (Lung) cells (Homo sapiens, NCI-H460, H460 Lung, SRB, 48 h), < 0.001 µM. Also, the TGI with MCF7 (Breast) cells (MCF7 Breast, SRB, 48 h) came out at 0.478 µM; in assay [2] (NCI-ADR-RES Ovarian, SRB), 0.094 µM; in the assay on HCT116 (Colon) cells (HCT116 Colon, SRB, 48 h), 0.156 µM; in the assay on H460 (Lung) cells (H460 Lung, SRB, 48 h) it was 0.007 µM. The “viability and/or cell proliferation of cell lines” value in assay [1] (cell lines representative of lung, breast, CNS, prostate, ovarian, colon and renal neoplasias) was “reduced the viability and/or cell proliferation”. Besides, the “binding to the membrane androgen receptor (conclusion)” value in assay [3] (DU145 cells) is on record as “capable of binding to the membrane androgen receptor”. Also, the “membrane fluorescence (binding of TAC-FITC to the membrane androgen receptor)” value in assay [3] (DU145 cells pre-treated with compound for 30 minutes, then testosterone-HSA-FITC) is on record as “largely reduced”. In addition, the pIC50 in assay [4] is 7.14. In the assay on PC3 (Prostate) cells (PC3 Prostate, SRB), this compound came in with an IC (TGI) of 0.414 µM.
